Read-outs that look alike come from different tables or passages of the source. Blank lines part the entries; values can stand above or below the molecule they belong to.
How the values were obtained:
ERK1/2 kinase = system: T1, ERK1/2 kinase; assay: ERK1/2 kinase (Carna) inhibitory activity, Caliper mobility shift; format: biochemical; details: for IC50: read-out: ERK½ IC50
T1 construct: fused on or other part: Carna's ERK products carry a GST tag by vendor knowledge
Experimental: (1) Preparation of 1×Kinase buffer; (2) preparation of compound concentration gradient: the initial test concentration of the tested compound was 10 μM, which was 3-fold diluted to 10 concentrations, and a duplicate test was conducted, and then the tested compound was diluted in a 96 well plate to a 100-fold final concentration of 10 different concentrations of solution. […] Log (inhibitor) vs. response—Variable slope of the analysis software GraphPad Prism 5 was used to fit the dose-effect curve to obtain the IC50 value of each compound on the enzyme activity.
2. […] (A<10 nM, 10 nM≤B<200 nM, C≥200 nM)

Colo-205 cells = assay: Colo-205 tumor cell proliferation, CCK-8, 72 hours; format: cell-based; details: for IC50: 72 hours, CCK-8, read-out: Colo-205 IC50; for cell proliferation inhibitory activity (in words): Colo-205
Experimental: 1. Test method: Colo-205 cells (ATCC) in logarithmic growth phase were inoculated into a 96-well culture plate at an appropriate density with 90 μL per well. After overnight culture, different concentrations of the compound were added and acted for 72 hours, and a solvent control group (negative control) was set. After the compound was acted on cells for 72 hours, the effect of the compound on cell proliferation was detected by the cell counting kit CCK-8 (Dojindo), and 10 μL of CCK-8 reagent was added to each well. After the plate was placed in a 37° C. incubator for 2 to 4 hours, a full-wavelength microplate reader SpectraMax 190 was adopted for obtaining the readings with a measured wavelength of 450 nm. […] The IC50 value was obtained by four-parameter regression with the software attached to the microplate reader.

[1] = In-vivo pharmacokinetic parameters in mice; design: species or system Balb-c mice; details: for F: PO 5 mg/kg vs IV 1 mg/kg; for AUC(0-inf) / AUC(0-t) / MRT inf / clearance / half-life / Vd / Cmax / Tmax: male, Balb-c, mouse, plasma; for Vd: read-out: Vss
Experimental: Six male SPF grade SD rats or Balb-c mice (Shanghai Sipple-Bikai Laboratory Animal) were divided into two groups, and the tested compounds were prepared into appropriate solutions or suspensions; one group was administered intravenously (with a dose of 1 mg/kg), and the other group was administered orally (with a dose of 5 mg/kg). Blood samples were collected by jugular vein puncture, and each sample was collected with a volume of about 0.2 mL/time point, and heparin sodium was used for anticoagulation. The time points of blood collection were listed below: 5, 15 and 30 min […], 1, 2, 4, 6, 8 and 24 h after administration; the collected blood samples were placed on ice and centrifuged to separate plasma (centrifugation conditions: 8,000 rpm, 6 min, 2 to 8° C.), and the collected plasma was stored at −80° C. before analysis. Plasma samples were analyzed by LC-MS/MS.
The pharmacokinetic parameters such as AUC0-t, AUC0-∞, MRT0-∞, Cmax, Tmax, T1/2 and Vd of the tested compounds and their mean values and standard deviations were calculated by the pharmacokinetic calculation software WinNonlin5.2 non-compartmental model according to the plasma concentration data. In addition, the bioavailability (F) was calculated by the following formula.
For samples with concentrations below the lower limit of quantitation, while pharmacokinetic parameter calculations were performed, samples sampled before Cmax was reached should be calculated as a zero value and samples sampled after Cmax was reached should be calculated as below limit of quantitation (BLQ).

[2] = Homo sapiens, COLO 205, numeric values
[3] = Homo sapiens, COLO 205, class symbols

Molecule: Cc1cccc([C@@H](CO)NC(=O)[C@@H](C)N2Cc3ccc(-c4ccnc(NC5CCOCC5)c4)c(F)c3C2=O)c1 [Embodiment 22]
enzyme inhibitory activity (in words) (ERK1/2 kinase): extremely strong enzyme inhibitory activity
IC50 (ERK1/2 kinase; numeric values): 1.3 nM
cell proliferation inhibitory activity (in words) (Colo-205 cells): strong cell proliferation inhibitory activity
IC50 (Colo-205 cells; [2]): 67.7 nM

Molecule: Cc1cccc([C@@H](CO)NC(=O)[C@@H](C)N2Cc3ccc(-c4ccnc(Nc5ccnn5C)n4)c(F)c3C2=O)c1 [Embodiment 27]
IC50 (ERK1/2 kinase; numeric values): 1.3 nM
IC50 (Colo-205 cells; class symbols): < 100 nM

Molecule: Cc1cccc([C@@H](CO)NC(=O)[C@@H](C)N2Cc3ccc(-c4nc(Nc5ccnn5C)ncc4Cl)c(F)c3C2=O)c1 [Embodiment 32]
IC50 (ERK1/2 kinase; numeric values): 1.4 nM
IC50 (Colo-205 cells; numeric values): 98.6 nM

Molecule: C[C@H](C(=O)N[C@H](CO)c1cccc(Cl)c1)N1Cc2ccc(-c3nc(NC4CCOCC4)ncc3Cl)c(F)c2C1=O [Embodiment 34, (R)-2-(6-(5-Chloro-2-((tetrahydro-2H-pyran-4-yl)amino)pyrimidin-4-yl)-7-fluoro-1-oxoisoindolin-2-yl)-N—((S)-1-(3-chlorophenyl)-2-hydroxyethyl)propanamide]
F [1]: 19%
AUC(0-inf) ([1]; IV, 1 mg/kg): 0.83 µM·h
AUC(0-t) ([1]; IV, 1 mg/kg): 0.825 µM·h
MRT inf ([1]; IV, 1 mg/kg): 18 min
clearance ([1]; IV, 1 mg/kg): 34 mL/min/kg
half-life ([1]; IV, 1 mg/kg): 48 min
Vd ([1]; IV, 1 mg/kg): 0.7 L/kg
AUC(0-inf) ([1]; PO, 5 mg/kg): 0.806 µM·h
AUC(0-t) ([1]; PO, 5 mg/kg): 0.797 µM·h
Cmax ([1]; PO, 5 mg/kg): 791 nM
Tmax ([1]; PO, 5 mg/kg): 18 min
half-life ([1]; PO, 5 mg/kg): 90 min

Molecule: Cc1cccc([C@@H](CN)NC(=O)[C@@H](C)N2Cc3ccc(-c4nc(NC5CCOCC5)ncc4F)c(F)c3C2=O)c1 [Embodiment 36]
enzyme inhibitory activity (in words) (ERK1/2 kinase): extremely strong enzyme inhibitory activity
IC50 (ERK1/2 kinase; numeric values): < 1 nM
cell proliferation inhibitory activity (in words) (Colo-205 cells): strong cell proliferation inhibitory activity
IC50 (Colo-205 cells; [3]): < 100 nM

Molecule: (R)-2-(3-(5-Chloro-2-((tetrahydro-2H-pyran-4-yl)amino)pyrimidin-4-yl)-5-oxo-5,7-dihydro-6H-pyrrolo[3,4-b]pyridin-6-yl)-N—((S)-2-hydroxy-1-(m-tolyl)ethyl)propanamide [Comparative compound 3, reference compound]
IC50 (Colo-205 cells; class symbols): > 1000 nM

Now from value to molecule, other results behind:

IC50 (ERK1/2 kinase; numeric values): 1.8 nM
IC50 (Colo-205 cells; [2]): 246 nM
Molecule: C[C@H](C(=O)N[C@H](CO)c1cccc(F)c1)N1Cc2ccc(-c3nc(NC4CCOCC4)ncc3Cl)nc2C1=O [Embodiment 20]
enzyme inhibitory activity (in words) (ERK1/2 kinase): extremely strong enzyme inhibitory activity

F [1]: 43%
AUC(0-inf) ([1]; IV, 1 mg/kg): 0.368 µM·h
AUC(0-t) ([1]; IV, 1 mg/kg): 0.364 µM·h
MRT inf ([1]; IV, 1 mg/kg): 18 min
clearance ([1]; IV, 1 mg/kg): 80 mL/min/kg
half-life ([1]; IV, 1 mg/kg): 42 min
Vd ([1]; IV, 1 mg/kg): 1.6 L/kg
AUC(0-inf) ([1]; PO, 5 mg/kg): 0.796 µM·h
AUC(0-t) ([1]; PO, 5 mg/kg): 0.776 µM·h
Cmax ([1]; PO, 5 mg/kg): 955 nM
Tmax ([1]; PO, 5 mg/kg): 18 min
half-life ([1]; PO, 5 mg/kg): 102 min
Molecule: Cc1cccc([C@@H](CO)NC(=O)[C@@H](C)N2Cc3ccc(-c4nc(NC5CCOCC5)ncc4Cl)c(F)c3C2=O)c1 [Embodiment 25, (R)-2-(6-(5-Chloro-2-((tetrahydro-2H-pyran-4-yl)amino)pyrimidin-4-yl)-7-fluoro-1-oxoisoindolin-2-yl)-N—((S)-2-hydroxy-1-(m-tolyl)ethyl)propanamide]

IC50 (ERK1/2 kinase; numeric values): 3.7 nM
IC50 (Colo-205 cells; class symbols): 100 to 1000 nM
Molecule: Cc1cccc([C@@H](CO)NC(=O)[C@@H](C)N2Cc3ccc(-c4nc(NC5CCOCC5)ncc4F)nc3C2=O)c1 [Embodiment 28]

IC50 (ERK1/2 kinase; numeric values): 3.6 nM
IC50 (Colo-205 cells; class symbols): 100 to 1000 nM
Molecule: Cc1cccc([C@@H](CO)NC(=O)[C@@H](C)N2Cc3ccc(-c4ccnc(NC(C)C)n4)c(F)c3C2=O)c1 [Embodiment 29]

IC50 (ERK1/2 kinase; numeric values): 6.9 nM
IC50 (Colo-205 cells; class symbols): 100 to 1000 nM
Molecule: Cc1cccc([C@@H](CO)NC(=O)[C@@H](C)N2Cc3ccc(-c4ccnc(NC5CCOCC5)n4)nc3C2=O)c1 [Embodiment 30]

F [1]: 26%
AUC(0-inf) ([1]; IV, 1 mg/kg): 0.272 µM·h
AUC(0-t) ([1]; IV, 1 mg/kg): 0.268 µM·h
MRT inf ([1]; IV, 1 mg/kg): 24 min
clearance ([1]; IV, 1 mg/kg): 110 mL/min/kg
half-life ([1]; IV, 1 mg/kg): 60 min
Vd ([1]; IV, 1 mg/kg): 2.7 L/kg
AUC(0-inf) ([1]; PO, 5 mg/kg): 0.347 µM·h
AUC(0-t) ([1]; PO, 5 mg/kg): 0.338 µM·h
Cmax ([1]; PO, 5 mg/kg): 357 nM
Tmax ([1]; PO, 5 mg/kg): 30 min
half-life ([1]; PO, 5 mg/kg): 90 min
Molecule: Cc1cccc([C@@H](CO)NC(=O)[C@@H](C)N2Cc3ccc(-c4nc(Nc5ccnn5C)ncc4Cl)c(F)c3C2=O)c1 [Embodiment 32, (R)-2-(6-(5-Chloro-2-((1-methyl-1H-pyrazol-5-yl)amino)pyrimidin-4-yl)-7-fluoro-1-oxoisoindolin-2-yl)-N—((S)-2-hydroxy-1-(m-tolyl)ethyl)propanamide]

F [1]: 25%
AUC(0-inf) ([1]; IV, 1 mg/kg): 0.276 µM·h
AUC(0-t) ([1]; IV, 1 mg/kg): 0.274 µM·h
MRT inf ([1]; IV, 1 mg/kg): 12 min
clearance ([1]; IV, 1 mg/kg): 102 mL/min/kg
half-life ([1]; IV, 1 mg/kg): 24 min
Vd ([1]; IV, 1 mg/kg): 1.3 L/kg
AUC(0-inf) ([1]; PO, 5 mg/kg): 0.338 µM·h
AUC(0-t) ([1]; PO, 5 mg/kg): 0.322 µM·h
Cmax ([1]; PO, 5 mg/kg): 441 nM
Tmax ([1]; PO, 5 mg/kg): 18 min
half-life ([1]; PO, 5 mg/kg): 90 min
Molecule: COc1cc(F)cc([C@@H](CO)NC(=O)[C@@H](C)N2Cc3ccc(-c4nc(NC5CCOCC5)ncc4Cl)c(F)c3C2=O)c1 [Embodiment 33, (R)-2-(6-(5-Chloro-2-((tetrahydro-2H-pyran-4-yl)amino)pyrimidin-4-yl)-7-fluoro-1-oxoisoindolin-2-yl)-N—((S)-1-(3-fluoro-5-methoxyphenyl)-2-hydroxyethyl)propanamide]

IC50 (ERK1/2 kinase; class symbols): < 10 nM
IC50 (Colo-205 cells; [3]): 100 to 1000 nM
Molecule: C[C@H](C(=O)N[C@H](CO)c1cccc(Cl)c1)N1Cc2ccc(-c3nc(NC4CCC(F)(F)CC4)ncc3F)c(F)c2C1=O [Embodiment 38]
